Literature values as cited in US8993576B2, “6-(1H-indol-4-yl)-4-(5-{[4-1-methylethyl)-1-piperazinyl]methyl}-1,3-oxazol-2-yl)-1H-indazole hemi succinate salt, polymorphs and pharmaceutical compositions thereof” (Glaxo Group Limited, priority 2010, dated 2015).
Read-outs that look alike come from different tables or passages of the source.

Legend:
[1] = test system: neutrophils
[2] = test system: neutrophils; remark: listed apart in the source
[3] = test system: Class I PI3-kinases
[4] = test system: neutrophils; conditions: treatment of neutrophils; Thelen et al. 1994
[5] = test system: phospholipases
[6] = biological target: CK2 protein kinase (Homo sapiens, UniProt P68400); conditions: read-out: IC50 on CK2 protein kinase
Chain of CK2 protein kinase (P68400 whole entry): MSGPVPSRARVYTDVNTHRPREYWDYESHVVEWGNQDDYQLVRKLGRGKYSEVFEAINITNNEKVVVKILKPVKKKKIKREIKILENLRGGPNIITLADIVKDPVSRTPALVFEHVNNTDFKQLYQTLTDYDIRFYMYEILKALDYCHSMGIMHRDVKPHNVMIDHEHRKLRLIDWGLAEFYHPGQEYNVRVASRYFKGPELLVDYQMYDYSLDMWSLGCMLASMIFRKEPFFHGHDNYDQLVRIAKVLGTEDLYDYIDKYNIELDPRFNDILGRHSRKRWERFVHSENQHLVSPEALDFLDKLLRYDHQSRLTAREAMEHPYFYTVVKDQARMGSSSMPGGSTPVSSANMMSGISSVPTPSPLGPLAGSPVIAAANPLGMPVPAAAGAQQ

Row | SMILES | effect on superoxide release [1] | effect on neutrophil migration [2] | IC50 ([3]; each of the four Class I PI3-kinases, read-out: IC50 values against each of the various Class I PI3-kinases) | effect on fMLP-induced respiratory burst response [4] | inhibitory activity on phospholipases [5] | IC50 ([3]; each of the Class I PI3-kinases, Fruman et al. 1998, read-out: IC50 values against each of these PI3-kinases) | IC50 [6]
1 | COC[C@H]1OC(=O)c2coc3c2[C@@]1(C)C1=C(C3=O)[C@@H]2CCC(=O)[C@@]2(C)C[C@H]1OC(C)=O [wortmannin] | block | block | 0.001 to 0.01 µM | prevents | – | – | –
2 | O=c1cc(N2CCOCC2)oc2c(-c3ccccc3)cccc12 [LY294002] | block | block | – | – | some inhibitory activity | 15 to 20 µM | 5 to 10 µM
